Source: patent US20260000635A1, “THERAPEUTIC AGENT FOR GLAUCOMA COMPRISING FP AGONIST AND ß BLOCKER” (ONO PHARMACEUTICAL CO., LTD., priority 2017, published 2026)

Tested on: male dogs (TOYO Beagle)
Assay: Intraocular pressure lowering action after instillation in dogs
Type: in vivo, dog (TOYO Beagle)
Details: for Time after administration exhibiting maximum intraocular pressure lowering action: 30 μL instillation, measured at 2, 4, 6, 8, 24 h; for Intraocular pressure lowering width 24 hours after administration / Maximum intraocular pressure lowering width: mean ± S.E., n=8, 30 μL instillation, Compound A 3 μg/mL, timolol 0.5% ophthalmic solution; for Maximum intraocular pressure lowering width: maximum of average lowering width over 2, 4, 6, 8, 24 h
Procedure: Compound A and a β-blocker were used as test substances. Compound A was prepared in a 3 μg/mL solution using a vehicle (an aqueous solution containing 0.3 w/v % sodium citrate, 0.5 w/v % polysorbate 80, and 0.8 w/v % sodium chloride). Timolol (trade name: Timoptol (registered trademark) 0.5% ophthalmic solution, Santen Pharmaceutical Co., Ltd.) was used as a β-blocker.
Approximately one hour before administering the vehicle and a test substance to male dogs (TOYO Beagle, 16 to 42 months old at start of use) that have been sufficiently acclimated in advance, intraocular pressure in both eyes was measured, and the intraocular pressure was set as the intraocular pressure value before instillation. Thereafter, a test substance or the vehicle was administered by instillation into the treated eyes in an amount of 30 μL each, and intraocular pressure in both eyes was measured about 2, 4, 6, 8, and 24 hours after the administration. The intraocular pressure was measured by a pneumatic applanation tonometer (Model 30 Classic, Reichert, Inc.) under the local anesthesia after instilling 0.4% oxybuprocaine hydrochloride (Benoxil (registered trademark) ophthalmic solution 0.4%, Santen Pharmaceutical Co., Ltd.), which is a local anesthetic. The measurement was performed until a stable value was obtained three times successively (a difference between continuously obtained measured values was within 0.5 mmHg).
The value obtained by subtracting the intraocular pressure value at each measurement time from the intraocular pressure value before test substance and vehicle administration was defined as the intraocular pressure lowering width, and the average value of the intraocular pressure lowering width of each individual at each measurement time was defined as the average intraocular pressure lowering width. The maximum value of the average intraocular pressure lowering width at each measurement time was defined as the maximum intraocular pressure lowering width. In addition, the average intraocular pressure lowering width 24 hours after administration was defined as the intraocular pressure lowering width 24 hours after administration. Meanwhile, in the case where there are two drug names in a group name, it means the order of administration. For example, the Compound A-timolol group means that Compound A was administered first, and timolol was administered thereafter into the same eye.

| Structure (SMILES) | Time after administration exhibiting maximum intraocular pressure lowering action [h] | Intraocular pressure lowering width 24 hours after administration [mmHg] | Maximum intraocular pressure lowering width [mmHg] |
| --- | --- | --- | --- |
| CC(C)OC(=O)CCC[C@H]1CC[C@@H]2[C@@H](/C=C/[C@@H](O)COc3cc(F)ccc3F)[C@H](O)C[C@@H]2OC1 [Compound A-vehicle, 2-propanyl 4-{(3S,5aR,6R,7R,8aS)-6-[(1E,3R)-4-(2,5-difluorophenoxy)-3-hydroxy-1-buten-1-yl]-7-hydroxyoctahydro-2H-cyclopenta[b]oxepin-3-yl}butanoate] | 6 | 3.5 ± 0.75 | 5.8 ± 0.35 |
| CC(C)(C)NC[C@H](O)COc1nsnc1N1CCOCC1 [Vehicle-timolol, timolol] | 2 | 0.0 ± 0.56 | 2.7 ± 0.56 |
